Patent US8633315B2, “Substituted hydroxyethyl amine compounds as beta-secretase modulators and methods of use” (Amgen Inc., priority 2007, dated 2014)

Assays:
BACE1 = BACE1 (Homo sapiens, UniProt P56817); experiment: In vitro enzymatic BACE FRET (fluorescence resonance energy transfer) assay; type: biochemical; settings: read-out: BACE 1 FRET assay
Summary of the method: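 Fluorescence (ex 488 nm, […]) was read after Tris addition raised pH to neutral, ending a one-hour incubation. Reaction started with 50 nM fluorophore/quencher peptide substrate in pH 4.2 acetate (0.05 M) containing 100 uM genapol and 10% DMSO final.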

[1] = Microsomal stability assay, rat liver microsomes; type: in vitro ADME
Excerpt: (§1) Microsomal Stability Assay

CYP3A4 (CYP3A) = CYP3A4 (CYP3A) (Homo sapiens, UniProt P08684); experiment: CYP3A inhibition assay (midazolam, pooled human liver microsomes); type: in vitro ADME; settings: human, pooled human liver microsomes, pH 7.4, probe midazolam (printed as about […]); read-out: 3A4 IC50
Chain of CYP3A4 (CYP3A) (P08684 2-503): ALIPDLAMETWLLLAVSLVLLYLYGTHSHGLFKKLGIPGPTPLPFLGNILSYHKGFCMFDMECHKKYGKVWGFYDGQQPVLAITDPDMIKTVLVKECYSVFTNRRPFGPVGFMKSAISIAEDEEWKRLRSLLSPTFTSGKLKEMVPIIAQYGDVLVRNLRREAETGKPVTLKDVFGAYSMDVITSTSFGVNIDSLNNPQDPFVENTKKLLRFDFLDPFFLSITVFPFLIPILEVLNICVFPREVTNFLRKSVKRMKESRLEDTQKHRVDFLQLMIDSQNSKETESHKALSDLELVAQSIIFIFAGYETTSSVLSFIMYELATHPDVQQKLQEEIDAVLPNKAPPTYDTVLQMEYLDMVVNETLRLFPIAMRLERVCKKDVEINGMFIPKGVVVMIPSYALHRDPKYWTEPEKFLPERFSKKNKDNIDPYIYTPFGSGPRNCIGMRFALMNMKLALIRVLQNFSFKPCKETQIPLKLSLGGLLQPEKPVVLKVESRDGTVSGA

[2] = test system: Cells stably expressing Amyloid Precursor Protein (APP); experiment: In vitro BACE cell-based assay (HEK cell assay): Aβ40 in conditioned medium by sandwich ELISA; settings: Homo sapiens, HEK293
Summary of the method: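 Secreted Aβ40 was quantified by time-resolved fluorescence sandwich ELISA, capturing with pAb40 for 3 h at 4 °C and detecting with biotinylated 6E10 for 2 h at 4 °C. Media came from APP-expressing cells exposed 24 h to compounds (10-point series from 100 or 10 μM, 0.1% DMSO); IC50 derived from percent of control.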

[3] = Microsomal stability assay, human liver microsomes; type: in vitro ADME
Excerpt: as §1

Chain of BACE1 (P56817 46-501, species assumed): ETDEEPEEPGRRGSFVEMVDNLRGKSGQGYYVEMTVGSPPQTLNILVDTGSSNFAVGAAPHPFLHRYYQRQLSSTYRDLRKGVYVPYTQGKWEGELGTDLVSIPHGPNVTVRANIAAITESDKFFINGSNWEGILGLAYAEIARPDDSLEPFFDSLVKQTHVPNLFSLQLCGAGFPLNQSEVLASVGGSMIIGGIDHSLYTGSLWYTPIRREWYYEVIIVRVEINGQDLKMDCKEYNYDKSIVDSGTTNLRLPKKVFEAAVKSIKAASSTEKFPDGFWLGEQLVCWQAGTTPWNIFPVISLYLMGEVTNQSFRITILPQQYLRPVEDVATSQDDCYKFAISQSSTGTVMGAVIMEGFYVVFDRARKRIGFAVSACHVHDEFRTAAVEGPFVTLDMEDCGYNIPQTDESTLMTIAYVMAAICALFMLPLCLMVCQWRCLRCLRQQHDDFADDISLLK

SMILES	IC50 (BACE1) [nM]	RLM [1] [µL/min/mg]	IC50 at 10 min (CYP3A4 (CYP3A)) [nM]	IC50 [2] [nM]	HLM [3] [µL/min/mg]
C=CC[C@H](NC(=O)COC)[C@H](O)CN[C@H]1CC2(CCC2)Oc2c1cc(CC(C)C)cc2-n1ccnc1 [compound 209]	338	183	100	328	31
COC[C@H](NC(C)=O)[C@H](O)CN[C@H]1CC2(CCC2)Oc2ncc(CC(C)(C)C)cc21 [compound 225]	480	14	27000	462	40
CCC[C@H](NC(=O)[C@@H](C)OC)[C@H](O)CN[C@H]1CC2(CCC2)Oc2c1cc(CC(C)(C)C)nc2NC [compound 227]	903	212	1500	163	119
C=CC[C@H](NC(=O)COC)[C@H](O)CN[C@H]1CC2(CCC2)Oc2c1cc(CC(C)(C)C)nc2Nc1ccncc1 [compound 232]	127	174	700	21	551
C=CC[C@H](NC(=O)COC)[C@H](O)CN[C@H]1CC2(CCC2)Oc2c1cc(CC(C)(C)C)cc2-n1ccnc1 [Example 216, N-((1S)-1-((1R)-2-(((4S)-6-(2,2-dimethylpropyl)-8-(1H-imidazol-1-yl)-3,4-dihydrospiro[chromene-2,1′-cyclobutan]-4-yl)amino)-1-hydroxyethyl)-3-buten-1-yl)-2-methoxyacetamide]	442	150	200	328	49
C=CC[C@H](NC(=O)COC)[C@H](O)CN[C@H]1CC2(CCC2)Oc2c(-c3cnc[nH]3)cc(CC(C)(C)C)cc21 [compound 218, N-((1S)-1-((1R)-2-(((4S)-6-(2,2-dimethylpropyl)-8-(1H-imidazol-5-yl)-3,4-dihydrospiro[chromene-2,1′-cyclobutan]-4-yl)amino)-1-hydroxyethyl)-3-buten-1-yl)-2-methoxyacetamide]	179	185	300	71	215
C=CC[C@H](NC(=O)COC)[C@H](O)CN[C@H]1CC2(CCC2)Oc2ncc(C(F)(F)C(C)(C)C)cc21 [compound 234]	2410	173	4100	5630	299
CCC[C@H](NC(=O)COC)[C@H](O)CN[C@H]1CC2(CCC2)Oc2c1cc(CC(C)(C)C)nc2NC [compound 226]	617	259	5000	83	161
C#CC[C@H](NC(=O)[C@@H](C)OC)[C@H](O)CN[C@H]1CC2(CCC2)Oc2c1cc(CC(C)(C)C)nc2NC [compound 222]	1220	156	1400	891	165
C=CC[C@H](NC(=O)COC)[C@H](O)CN[C@H]1CC2(CCC2)Oc2c(-c3nccs3)cc(CC(C)C)cc21 [compound 212, N-((1S)-1-((1R)-1-hydroxy-2-(((4S)-6-(2-methylpropyl)-8-(1,3-thiazol-2-yl)-3,4-dihydrospiro[chromene-2,1′-cyclobutan]-4-yl)amino)ethyl)-3-buten-1-yl)-2-methoxyacetamide]	92	399	700	262	775
C=CC[C@H](NC(=O)COC)[C@H](O)CN[C@H]1CC2(CCC2)Oc2c(-c3ccncc3)cc(CC(C)(C)C)cc21 [compound 219]	170	360	100	249	106
C=CC[C@H](NC(=O)C1COC(c2cccnc2)O1)[C@H](O)CN[C@H]1CC2(CCC2)Oc2ncc(CC(C)(C)C)cc21 (stereo partly drawn) [compound 243, N-((1S)-1-((1R)-2-(((4′S)-6′-(2,2-dimethylpropyl)-3′,4′-dihydrospiro[cyclobutane-1,2′-pyrano[2,3-b]pyridin]-4′-yl)amino)-1-hydroxyethyl)-3-buten-1-yl)-2-(3-pyridinyl)-1,3-dioxolane-4-carboxamide]	2160	173	300	982	601
CCC[C@H](NC(=O)[C@H]1CCCO1)[C@H](O)CN[C@H]1CC2(CCC2)Oc2c1cc(CC(C)(C)C)nc2NC [compound 228, (2R)-N-((1S)-1-((1R)-2-(((4′S)-6′-(2,2-dimethylpropyl)-8′-(methylamino)-3′,4′-dihydrospiro[cyclobutane-1,2′-pyrano[2,3-c]pyridin]-4′-yl)amino)-1-hydroxyethyl)butyl)tetrahydro-2-furancarboxamide]	627	345	1500	781	165
C=CC[C@H](NC(=O)[C@@H]1CN(Cc2nccs2)CCO1)[C@H](O)CN[C@H]1CC2(CCC2)Oc2ncc(CC(C)(C)C)cc21 [compound 246, (2S)-N-((1S)-1-((1R)-2-(((4′S)-6′-(2,2-dimethylpropyl)-3′,4′-dihydrospiro[cyclobutane-1,2′-pyrano[2,3-b]pyridin]-4′-yl)amino)-1-hydroxyethyl)-3-buten-1-yl)-4-(1,3-thiazol-2-ylmethyl)-2-morpholinecarboxamide]	128	335	700	116	736

The next molecules have a lower IC50 (BACE1) than those just listed; values first:

IC50 (BACE1) [nM]	RLM [1] [µL/min/mg]	IC50 at 10 min (CYP3A4 (CYP3A)) [nM]	IC50 [2] [nM]	HLM [3] [µL/min/mg]	SMILES
78	106	1900	58	61	C#CC[C@H](NC(C)=O)[C@H](O)CNC1CC2(CCC2)Oc2c1cc(CC(C)(C)C)nc2NC (stereo partly drawn) [Example 221]
78	232	1000	369	284	C=CC[C@H](NC(=O)COC)[C@H](O)CN[C@H]1CC2(CCC2)Oc2c(-c3ccc4c(c3)OCO4)cc(CC(C)(C)C)cc21 [compound 231, N-((1S)-1-((1R)-2-(((4S)-8-(1,3-benzodioxol-5-yl)-6-(2,2-dimethylpropyl)-3,4-dihydrospiro[chromene-2,1′-cyclobutan]-4-yl)amino)-1-hydroxyethyl)-3-buten-1-yl)-2-methoxyacetamide]
60	25	27000	339	36	CC[C@H](NC(C)=O)[C@H](O)CN[C@H]1CC2(CCC2)Oc2ncc(CC(C)(C)C)cc21 [compound 213]
57	551	1000	838	736	C=CC[C@H](NC(=O)COC)[C@H](O)CN[C@H]1CC2(CCC2)Oc2c(-c3nccs3)cc(CC(C)(C)C)cc21 [compound 215]
54	119	1200	366	614	C=CC[C@H](NC(=O)COC)[C@H](O)CN[C@H]1CC2(CCC2)Oc2c1cc(CC(C)(C)C)nc2Nc1nccs1 [compound 236]
44	247	900	2170	492	C=CC[C@H](NC(=O)COC)[C@H](O)CN[C@H]1CC2(CCC2)Oc2c(Br)cc(CC(C)(C)C)cc21 [compound 214]
31	100	2700	121	244	C=CC[C@H](NC(C)=O)[C@H](O)CN[C@H]1CC2(CCC2)Oc2c1cc(CC(C)(C)C)nc2Nc1nccs1 [compound 235]
26	150	6100	987	139	C=CC[C@H](NC(C)=O)[C@H](O)CN[C@H]1CC2(CCC2)Oc2c1cc(CC(C)(C)C)nc2Nc1ccccc1 [compound 229, N-((1S)-1-((1R)-2-(((4′S)-6′-(2,2-dimethylpropyl)-8′-(phenylamino)-3′,4′-dihydrospiro[cyclobutane-1,2′-pyrano[2,3-c]pyridin]-4′-yl)amino)-1-hydroxyethyl)-3-buten-1-yl)acetamide]
20	477	200	920	551	C=CC[C@H](NC(=O)COC)[C@H](O)CN[C@H]1CC2(CCC2)Oc2c(-c3cncs3)cc(CC(C)(C)C)cc21 [compound 217]
16	197	1300	388	151	C=CC[C@H](NC(=O)COC)[C@H](O)CN[C@H]1CC2(CCC2)Oc2c1cc(CC(C)(C)C)nc2Nc1ccc2c(c1)OCO2 [compound 233, N-((1S)-1-((1R)-2-(((4′S)-8′-(1,3-benzodioxol-5-ylamino)-6′-(2,2-dimethylpropyl)-3′,4′-dihydrospiro[cyclobutane-1,2′-pyrano[2,3-c]pyridin]-4′-yl)amino)-1-hydroxyethyl)-3-buten-1-yl)-2-methoxyacetamide]
